According to patent publication US10124004B2, “Pyrido[3,4-d]pyrimidine derivative and pharmaceutically acceptable salt thereof” (Teijin Pharma Limited, priority 2015, dated 2018):
Where two headings read alike, the source gives them in different places.

Key:
CDK2/cyclin A2 = molecular target: T1, CDK2/cyclin A2 (Homo sapiens, UniProt P24941); assay: Human CDK2/cyclin A2 inhibitory activity (QS S Assist CDK2/Cyclin A2_FP Kit, IMAP fluorescence polarization); format: biochemical
T1 construct: purchased Carna Biosciences, Inc. QS S Assist CDK2/Cyclin A2_FP Kit
Outline: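 Kinase activity read as fluorescence polarization (485/535 nm) after phosphorylated fluorescent substrate binds IMAP reagent (30 min, RT, dark). Enzyme (2.5 ng/well) reacted 60 min at RT with ATP/substrate/metal in HEPES pH 7.4 buffer with Tween 20 and DTT; no-enzyme wells define 0% activity; IC50 by curve fit.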

CDK4/cyclin D3 = molecular target: T2, CDK4/cyclin D3 (Homo sapiens, UniProt P11802); assay: Human CDK4/cyclin D3 inhibitory activity (QS S Assist CDK4/Cyclin D3_FP Kit, IMAP fluorescence polarization); format: biochemical
T2 construct: purchased Carna Biosciences, Inc. QS S Assist CDK4/Cyclin D3_FP Kit
Outline: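 Percent inhibition, relative to DMSO with and without enzyme, was curve-fitted to give IC50 from polarization (ex 485, em 535 nm). The 45-min room-temperature reaction used 12.5-25 ng/well enzyme, kit ATP/substrate/metal mix, and HEPES pH 7.4 buffer with Tween20 and DTT, followed by 30-min IMAP binding in the dark.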

[1] = Human CDK2/cyclin A2 inhibitory activity, read-out: CDK2 Activity symbol
[2] = Human CDK4/cyclin D3 inhibitory activity, read-out: CDK4 Activity symbol
[3] = 50% inhibitory concentration against CDK2/cyclin A2, given as class symbol
[4] = 50% inhibitory concentration against CDK4/cyclin D3, given as class symbol

T2 sequence (P11802 whole entry): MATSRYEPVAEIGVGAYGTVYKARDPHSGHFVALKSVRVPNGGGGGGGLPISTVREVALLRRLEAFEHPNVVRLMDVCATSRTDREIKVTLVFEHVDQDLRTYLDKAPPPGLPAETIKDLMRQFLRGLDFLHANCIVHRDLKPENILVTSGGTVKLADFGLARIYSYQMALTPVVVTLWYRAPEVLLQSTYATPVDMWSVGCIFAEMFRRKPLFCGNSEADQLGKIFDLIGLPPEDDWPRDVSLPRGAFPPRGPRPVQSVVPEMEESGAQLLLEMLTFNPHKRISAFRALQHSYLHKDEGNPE
T2 sequence (P30281 whole entry partner): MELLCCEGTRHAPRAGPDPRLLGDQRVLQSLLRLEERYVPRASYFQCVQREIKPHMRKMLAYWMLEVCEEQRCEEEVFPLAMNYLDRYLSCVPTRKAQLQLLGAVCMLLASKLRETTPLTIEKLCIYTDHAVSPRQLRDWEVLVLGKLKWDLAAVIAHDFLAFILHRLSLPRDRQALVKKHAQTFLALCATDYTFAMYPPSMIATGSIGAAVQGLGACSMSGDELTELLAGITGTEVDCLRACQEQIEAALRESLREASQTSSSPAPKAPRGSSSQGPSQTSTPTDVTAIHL

Row | IC50 (CDK2/cyclin A2; [1]) [nM] | IC50 (CDK4/cyclin D3; [2]) [nM] | IC50 (CDK2/cyclin A2; [3]) [nM] | IC50 (CDK4/cyclin D3; [4]) [nM] | SMILES
1 | ≥ 100 | < 10 | – | – | FC(F)c1cc2cnc(Nc3ccc(N4CCNCC4)nn3)nc2c(NC2CCOCC2)n1 [Compound 365]
2 | ≥ 100 | < 10 | – | – | CC(=O)N1CCC(c2ccc(Nc3ncc4cc(C(F)F)nc(NC(C)C)c4n3)nc2)CC1 [Compound 178]
3 | 10 to 100 | < 10 | – | – | CC(C)Nc1nc(C(F)F)cc2cnc(Nc3ccc(CN4CCCC(CO)C4)cn3)nc12 (stereo not shown) [Compound 127]
4 | ≥ 100 | < 10 | – | – | CO[C@H](C)c1cc2cnc(Nc3ccc(C(C)N4CCNCC4)cn3)nc2c(NC(C)C)n1 (stereo partly shown) [Compound 266]
5 | – | – | ≥ 100 | < 10 | C[C@@H](O)c1cc2cnc(Nc3ccc(CN4CCC(O)CC4)cn3)nc2c(N[C@H]2CCCOC2)n1 [Compound 1126]
6 | – | – | ≥ 100 | < 10 | C[C@@H](O)c1cc2cnc(Nc3ccc(CN4CCN(CCO)CC4)cn3)nc2c(NC2(C)CC2)n1 [Compound 1201]
7 | 10 to 100 | < 10 | – | – | CC(C)Nc1nc(C(F)F)cc2cnc(Nc3ccc(N4CCC(O)CC4)cn3)nc12 [Compound 50]
8 | ≥ 100 | < 10 | – | – | CC(C)Nc1nc([C@@H](C)O)cc2cnc(Nc3ccc(N4CCN(C(C)CO)CC4)nn3)nc12 (stereo partly shown) [Compound 588]
9 | – | – | ≥ 100 | < 10 | CC(C)Nc1nc([C@@H](C)O)cc2cnc(Nc3ccc(C4CCN(C(C)(C)C(=O)O)CC4)nn3)nc12 [Compound 790]
10 | – | – | ≥ 100 | < 10 | CC(C)Nc1nc([C@@H](C)O)cc2cnc(Nc3ccc(CN4CCN(C[C@H](C)O)CC4)cn3)nc12 [Compound 674]
11 | – | – | ≥ 100 | < 10 | CO[C@H](C)c1cc2cnc(Nc3ccc4c(n3)CCN(C(=O)CO)C4)nc2c(N[C@H]2CC[C@H](O)CC2)n1 [Compound 1144]
12 | ≥ 100 | < 10 | – | – | CC(O)c1cc2cnc(Nc3ccc(N4CCNCC4)cn3)nc2c(NC2CCOCC2)n1 (stereo not shown) [Compound 12]
13 | – | – | ≥ 100 | 10 to 100 | CO[C@H](C)c1cc2cnc(Nc3ccc(N4CCCC(C(=O)O)C4)cn3)nc2c(NC(C)C)n1 (stereo partly shown) [Compound 893]
14 | – | – | ≥ 100 | < 10 | CCNc1nc([C@@H](C)O)cc2cnc(Nc3ccc4c(n3)CCN(C(=O)OCCN(C)C)C4)nc12 [Compound 1142]
15 | – | – | ≥ 100 | 10 to 100 | CCNc1nc([C@@H](C)O)cc2cnc(Nc3ccc(CN4CCN(CCO)CC4(C)C)cn3)nc12 [Compound 1203]
16 | – | – | ≥ 100 | < 10 | CC(C)Nc1nc(C2CCOC2)cc2cnc(Nc3ccc(CN4CCN(CCO)CC4)cn3)nc12 (stereo not shown) [Compound 1010]
17 | ≥ 100 | < 10 | – | – | CO[C@H](C)c1cc2cnc(Nc3ccc(C4CCCNC4)cn3)nc2c(NC(C)C)n1 (stereo partly shown) [Compound 332]
18 | ≥ 100 | < 10 | – | – | CC(C)Nc1nc(C(F)F)cc2cnc(Nc3ccc(CCCN4CCCCS4(=O)=O)cn3)nc12 [Compound 170]
19 | ≥ 100 | < 10 | – | – | C[C@@H](O)c1cc2cnc(Nc3ccc(C4CCNCC4)nn3)nc2c(NC2CCOCC2)n1 [Compound 317]
20 | ≥ 100 | 10 to 100 | – | – | CC(=O)Nc1ccc(Nc2ncc3cc(C(F)F)nc(NC(C)C)c3n2)nc1 [Compound 86]

Row | IC50 (CDK2/cyclin A2; [1]) [nM] | IC50 (CDK4/cyclin D3; [2]) [nM] | IC50 (CDK2/cyclin A2; [3]) [nM] | IC50 (CDK4/cyclin D3; [4]) [nM] | SMILES
21 | ≥ 100 | ≥ 100 | – | – | CO[C@H](C)c1cc2cnc(Nc3ccc(CN4[C@@H](C)COC[C@@H]4C)cn3)nc2c(NC(C)C)n1 [Compound 280]
22 | ≥ 100 | < 10 | – | – | CC(C)Nc1nc([C@@H](C)O)cc2cnc(Nc3ccc(OCCN4CCNCC4=O)cn3)nc12 [Compound 550]
23 | 10 to 100 | < 10 | – | – | CC(C)Nc1nc(C(F)F)cc2cnc(Nc3ccc(CCCCO)cn3)nc12 [Compound 108]
24 | 10 to 100 | < 10 | – | – | CC(C)Nc1nc(C(F)F)cc2cnc(Nc3ccc(CN4CCNCC4=O)cn3)nc12 [Compound 205]
25 | – | – | ≥ 100 | 10 to 100 | CC(=O)c1cc2cnc(Nc3ccc(CN4CCN(CCO)CC4)cn3)nc2c(NCC(C)C)n1 [Compound 973]
26 | – | – | ≥ 100 | < 10 | CCNc1nc([C@@H](C)OC)cc2cnc(Nc3ccc(CN4CCNCC4)cn3)nc12 [Compound 816]
27 | – | – | ≥ 100 | < 10 | CC(C)CNc1nc([C@@H](C)O)cc2cnc(Nc3ccc(CN4CCC[C@@H](O)C4)cn3)nc12 [Compound 1186]
28 | – | – | ≥ 100 | < 10 | CC(C)Nc1nc([C@@H](C)O)cc2cnc(Nc3ccc(N4CC(CO)C4)nn3)nc12 [Compound 667]
29 | ≥ 100 | < 10 | – | – | CC(C)Nc1nc([C@@H](C)O)cc2cnc(Nc3ccc(OCCN(C)C)cn3)nc12 [Compound 245]
30 | ≥ 100 | < 10 | – | – | CO[C@H](C)c1cc2cnc(Nc3ccc(CN4CCN(CCF)CC4)cn3)nc2c(NC(C)C)n1 [Compound 276]
31 | ≥ 100 | < 10 | – | – | CC(=O)N(Cc1ccc(Nc2ncc3cc(C(F)F)nc(NC(C)C)c3n2)nc1)CC1CCOCC1 [Compound 144]
32 | – | – | ≥ 100 | 10 to 100 | CC(C)Nc1nc([C@H](C)O)cc2cnc(Nc3ccc(N4CCNCC4=O)cn3)nc12 [Compound 1217]
33 | – | – | ≥ 100 | < 10 | CO[C@H](C)c1cc2cnc(Nc3ccc(N4CCN(C(=O)C5CCCO5)CC4)nn3)nc2c(NC(C)C)n1 (stereo partly shown) [Compound 1176]
34 | ≥ 100 | < 10 | – | – | COCC(C)Nc1nc(C(C)O)cc2cnc(Nc3ccc(N4CCNCC4)cn3)nc12 (stereo not shown) [Compound 28]
35 | – | – | ≥ 100 | < 10 | CC(C)Nc1nc(C(C)O)cc2cnc(Nc3ccc(OC4CCNCC4F)cn3)nc12 (stereo not shown) [Compound 708]
36 | – | – | ≥ 100 | < 10 | CNCCOc1ccc(Nc2ncc3cc([C@@H](C)O)nc(N[C@@H](C)COC)c3n2)nc1 [Compound 757]
37 | – | – | ≥ 100 | < 10 | CC1(c2cc3cnc(Nc4ccc(CN5CCNCC5)cn4)nc3c(NC3CCC3)n2)COC1 [Compound 1108]
38 | – | – | ≥ 100 | < 10 | CCNc1nc([C@@H](C)O)cc2cnc(Nc3ccc(N4CCNCC4)cn3)nc12 [Compound 1001]
39 | ≥ 100 | < 10 | – | – | CC(C)Nc1nc([C@@H](C)O)cc2cnc(Nc3ccc(N4CCN(C)CC4)nn3)nc12 [Compound 532]
40 | – | – | ≥ 100 | 10 to 100 | CCNc1nc(C(F)F)cc2cnc(Nc3ccc(CN4CCC(C(=O)O)CC4)cn3)nc12 [Compound 1096]

Row | IC50 (CDK2/cyclin A2; [1]) [nM] | IC50 (CDK4/cyclin D3; [2]) [nM] | IC50 (CDK2/cyclin A2; [3]) [nM] | IC50 (CDK4/cyclin D3; [4]) [nM] | SMILES
41 | – | – | ≥ 100 | < 10 | C[C@@H](O)c1cc2cnc(Nc3ccc(C4CCNCC4)cn3)nc2c(N[C@H]2CCCOC2)n1 [Compound 957]
42 | – | – | ≥ 100 | < 10 | C[C@@H](O)c1nc(N[C@H]2CCCOC2)c2nc(Nc3ccc(OCCN(C)C)cn3)ncc2c1Cl [Compound 719]
43 | ≥ 100 | < 10 | – | – | CNC1CC2(C1)CN(c1ccc(Nc3ncc4cc([C@@H](C)O)nc(NC(C)C)c4n3)nn1)C2 [Compound 606]
44 | ≥ 100 | < 10 | – | – | CO[C@H](C)c1cc2cnc(Nc3ccc(N4CCNCC4)nn3)nc2c(N[C@@H]2CCCOC2)n1 [Compound 305]
45 | – | – | ≥ 100 | < 10 | CCCNc1nc([C@@H](C)O)cc2cnc(Nc3ccc(N4CCNCC4)c(C)n3)nc12 [Compound 1092]
46 | – | – | ≥ 100 | < 10 | CC(C)Nc1nc([C@@H](C)O)cc2cnc(Nc3ccc(N4CCNCC(C)C4=O)cn3)nc12 (stereo partly shown) [Compound 665]
47 | – | – | ≥ 100 | 10 to 100 | CCNc1nc([C@@H](C)O)cc2cnc(Nc3ccc(N4CCNCC4=O)cn3)nc12 [Compound 812]
48 | ≥ 100 | < 10 | – | – | CC(C)Nc1nc(C(F)F)cc2cnc(Nc3ccc(CN4CCOCC4)cn3)nc12 [Compound 94]
49 | ≥ 100 | < 10 | – | – | CC(C)Nc1nc(C(F)F)cc2cnc(Nc3ccc(CN4CCCC4=O)cn3)nc12 [Compound 165]
50 | ≥ 100 | < 10 | – | – | CO[C@H](C)c1cc2cnc(Nc3ccc(N4CC[C@H](O)CC4=O)cn3)nc2c(NC(C)C)n1 [Compound 267]
51 | – | – | ≥ 100 | < 10 | CNC(=O)N1CCc2nc(Nc3ncc4cc([C@@H](C)O)nc(NC(C)C)c4n3)ccc2C1 [Compound 933]
52 | – | – | ≥ 100 | < 10 | CCCNc1nc([C@@H](C)O)cc2cnc(Nc3ccc(CN4CCC[C@H](O)C4)cn3)nc12 [Compound 1198]
53 | – | – | ≥ 100 | < 10 | CC(C)Nc1nc([C@@H](C)O)cc2cnc(Nc3ccc(O[C@H]4CC[C@@H](N(C)C)CC4)cn3)nc12 [Compound 741]
54 | – | – | ≥ 100 | < 10 | Cc1nc(Nc2ncc3cc(C4CCOC4)nc(NC(C)C)c3n2)ccc1N1CCNCC1=O (stereo not shown) [Compound 824]
55 | – | – | ≥ 100 | < 10 | CC1(c2cc3cnc(Nc4ccc5c(n4)CCN(CCO)C5)nc3c(N[C@H]3CC[C@H](O)CC3)n2)COC1 [Compound 1155]
56 | ≥ 100 | < 10 | – | – | COC1CCC(Nc2nc([C@@H](C)O)cc3cnc(Nc4ccc(N5CCC(O)CC5)nn4)nc23)CC1 (stereo partly shown) [Compound 590]
57 | – | – | ≥ 100 | < 10 | CC(C)Nc1nc(C(C)O)cc2cnc(Nc3ccc(N4CCC(O)C5(CC5)C4)nn3)nc12 (single isomer, unassigned) [Compound 724]
58 | – | – | ≥ 100 | < 10 | C[C@@H](O)c1cc2cnc(Nc3ccc(O[C@@H]4CCNC4)cn3)nc2c(N[C@H]2CCCOC2)n1 [Compound 805]
59 | – | – | ≥ 100 | 10 to 100 | C[C@@H](O)c1cc2cnc(Nc3ccc(N4CCNCC4=O)cn3)nc2c(N(C)[C@H]2CCCOC2)n1 [Compound 872]
